From patent publication US11273152B2, “TRPV2 antagonists” (Instituto de Medicina Molecular João Lobo Antunes, priority 2017, dated 2022) come the findings set out here.

Assay [1] addresses TRPV3 (Homo sapiens, UniProt Q8NET8). Nature of the assay: Fluorescence cell-based assay, TRPV3. The following applies: calcium 5 dye, duplicate. The protocol: The assays were performed at SB Discovery (Glasgow, UK) on a fee-for-service basis. Human TRP cells were trypsinised, counted and seeded in black, clear-bottomed 96 well plates at a density of 50,000 cells per well in 100 μL volume and incubated overnight. Next day, the cells were loaded with calcium 5 dye or membrane potential dye. TRPV1-5, TRPA1, TRPM2, TRPM3, and TRPM8 were tested using the calcium 5 dye. TRPC1, TRPC3-7, and TRPM4-5 were tested using the membrane potential dye. Both dye solutions were made up in HEPES buffered Hank's balanced salt solution (HBSS). Dye solution (90 μL) was added to the wells and incubated at 37° C. for 1 hour. Test compounds and standard inhibitors (10 μL) were then added to the wells and incubated at room temperature for 10 minutes. The plates were then placed in the flexstation and fluorescence monitored every 1.52 seconds. After 20 seconds agonist was added and the fluorescence monitored for 2 minutes at 485 nm/525 nm and 530 nm/565 nm, Ex/Em, for the calcium 5 dye and the membrane potential dye respectively. Controls-TRPV1: capsazepine; TRPV2: tranilast; TRPV3: ruthenium red; TRPV4: ruthenium red; TRPV5: Gd^3+; TRPA1, ruthenium red; TRPC1: Gd^3+; TRPC3: Pyr3; TRPC4: ML 204; TRPC5: ML 204; TRPC6: ML 204; TRPC7: SKF 96365; TRPM2: 2-APB; TRPM3: Mef acid; TRPM4: clotrimazole; TRPM5: TPPO; TRPM8: 2-APB. […]

Assay [2] concerns the target T1, TRPV2 (Homo sapiens, UniProt Q9Y5S1).
T1 sequence (Q9Y5S1 1-764): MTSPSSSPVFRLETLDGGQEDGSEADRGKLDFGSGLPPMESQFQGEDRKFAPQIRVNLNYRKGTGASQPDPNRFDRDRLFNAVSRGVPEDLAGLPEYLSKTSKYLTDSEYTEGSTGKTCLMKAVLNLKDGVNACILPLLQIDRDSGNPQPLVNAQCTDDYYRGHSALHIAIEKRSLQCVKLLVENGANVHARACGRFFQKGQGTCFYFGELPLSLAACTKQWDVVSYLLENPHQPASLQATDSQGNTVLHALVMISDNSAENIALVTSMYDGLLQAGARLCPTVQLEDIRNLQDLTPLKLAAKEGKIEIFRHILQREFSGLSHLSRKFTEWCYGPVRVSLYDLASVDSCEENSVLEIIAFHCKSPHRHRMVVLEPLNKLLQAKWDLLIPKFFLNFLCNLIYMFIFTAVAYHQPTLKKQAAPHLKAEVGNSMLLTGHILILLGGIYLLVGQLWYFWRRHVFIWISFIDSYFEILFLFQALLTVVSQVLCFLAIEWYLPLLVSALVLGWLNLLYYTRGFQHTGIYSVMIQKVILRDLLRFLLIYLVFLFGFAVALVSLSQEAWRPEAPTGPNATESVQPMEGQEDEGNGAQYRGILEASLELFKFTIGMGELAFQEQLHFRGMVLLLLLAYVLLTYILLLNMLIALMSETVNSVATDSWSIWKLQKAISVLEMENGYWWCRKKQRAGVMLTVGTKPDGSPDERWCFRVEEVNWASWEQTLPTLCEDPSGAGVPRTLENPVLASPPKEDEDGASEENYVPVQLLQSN
Nature of the assay: Manual patch-clamp assay, hTRPV2 stable HEK-293 cells. To be noted: n=2; for IC50: read-out: IC50 against TRPV2, patch-clamp assay. It counts as cell-based. As for the experimental part:
The assays were performed at SB Discovery (Glasgow, UK) on a fee-for-service basis. Concentration-response curves and washout assays were performed using a manual patch clamp method. HEK-293 cells were grown and prepared, according to the adapted procedure for hTRPV2 stable cell lines at SB Discovery. Cells were serum starved for approximately 24 hours and then changed to serum-containing media prior to electrophysiology testing. The manual patch-clamp assay was carried out at room temperature using a traditional electrophysiological unit. Cells were used within 2-3 hours after addition of serum containing media to the cells. The standard extracellular solution contained 145 mM NaCl, 4 mM KCl, 2 mM CaCl2, 1 mM MgCl2, 10 mM HEPES and 10 mM glucose. The pH was adjusted to 7.4 with NaOH, and the osmolarity was measured as 311 mOsm/L. The standard intracellular solution contained 50 mM KCl, 10 mM NaCl, 60 mM KF, 2 mM MgCl2, 20 mM EGTA and 10 mM HEPES. The pH was adjusted to 7.2 with KOH and the osmolarity was measured as 286 mOsm/L. A standard ramp protocol was used to monitor currents upon addition of control (extracellular solution) and compound solutions. The voltage protocol consisted of a series of voltage ramps from −100 mV to +100 mV, every 5 seconds, from a holding potential of −60 mV. The maximum outward current values during the recordings at +100 mV were used for analysis. Manual patch clamp experiments were carried out using an Axon 200B amplifier and a Digidata 1440A acquisition system from Axon Instruments (Molecular Devices, USA). The software program pClamp (version 10) from Axon Instruments was used to stimulate and record electrical activity. Capacitative transients were compensated electronically from the recordings, however the voltage drop across the series resistance and the liquid junction potential were not compensated. The series resistance was generally less than 10 MΩ, with a mean cell capacity of approximately 25 pF. The GraphPad Prism (version 5) software was used to analyze and plot all graphs. The agonist (cannabidiol; Abcam #ab120448) was prepared as 100 mM stock in 100% DMSO and diluted to 4 μM or 10 μM in physiological solution prior to testing. Piperlongumine was prepared as 100 mM stock in 100% DMSO and diluted to the specified concentrations in physiological solution (100, 50, 10, 1 and 0.1 μM), also containing 4 μM or 10 μM cannabidiol. Ruthenium red (Sigma, #R2751) was prepared daily as 10 mM stock ion distilled water and diluted to 100 μM in physiological solution.

Entries after “also recorded” stand apart in the source; their conditions may differ. Read-outs that look alike come from different tables or passages of the source.

Chain of TRPV3 (Q8NET8 whole entry): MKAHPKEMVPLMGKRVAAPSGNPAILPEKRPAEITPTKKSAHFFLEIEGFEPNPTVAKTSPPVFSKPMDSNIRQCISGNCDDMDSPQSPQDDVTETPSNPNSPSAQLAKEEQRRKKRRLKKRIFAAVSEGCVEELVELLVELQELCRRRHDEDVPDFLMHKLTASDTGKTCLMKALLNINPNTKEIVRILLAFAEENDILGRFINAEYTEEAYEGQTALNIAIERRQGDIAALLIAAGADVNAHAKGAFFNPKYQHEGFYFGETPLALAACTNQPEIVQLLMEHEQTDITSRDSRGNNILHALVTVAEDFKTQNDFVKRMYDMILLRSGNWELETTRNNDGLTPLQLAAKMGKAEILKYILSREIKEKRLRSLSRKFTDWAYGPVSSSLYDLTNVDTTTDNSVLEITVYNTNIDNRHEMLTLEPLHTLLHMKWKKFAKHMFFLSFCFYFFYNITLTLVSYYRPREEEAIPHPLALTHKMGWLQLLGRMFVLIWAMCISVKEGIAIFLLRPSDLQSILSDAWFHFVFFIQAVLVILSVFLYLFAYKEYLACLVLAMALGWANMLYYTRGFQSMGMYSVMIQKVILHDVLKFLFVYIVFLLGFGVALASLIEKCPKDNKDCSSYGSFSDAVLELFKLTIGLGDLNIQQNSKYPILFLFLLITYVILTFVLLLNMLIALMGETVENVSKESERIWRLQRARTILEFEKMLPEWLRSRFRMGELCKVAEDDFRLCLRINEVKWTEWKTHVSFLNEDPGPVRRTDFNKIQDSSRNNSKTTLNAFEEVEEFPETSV

As for `COc1cc(/C=C/C(=O)N2CCC=CC2=O)cc(OC)c1OC` [Compound 1, piperlongumine], the concentration for half-maximal inhibition (IC50) is above 100 µM in assay [1]; 1 µM in assay [2] (stimulus: 4 μM CBD, spread in log units); above 100 µM in assay [2] (stimulus: 10 μM CBD). For the same compound, the “TRPV2 activity after washout (reversibility)” value in assay [2] (1 at 100 μM, CBD 4 μM) is “fully restored upon washout; also recorded: full TRPV2 activity can be reinstated”.

In general, IC50 refers to the concentration at which inhibition is half-maximal.
